Assay results published in patent publication US20070043011A1, “Substituted benzanilide compound and noxious organism controlling agent” (priority 2003, published 2007).
Like-named read-outs stand apart in the source and are kept apart here.

Key:
Format in all cases: in vivo
[1] = tested on: diamondback moths (Plutella xylostella); assay: Insecticidal test against diamondback moth (leaf dip); settings: foliar, 144 h, read-out: insecticidal rate (rate of dead insects)
Experimental: (§1) A 10% emulsifiable concentrate (depending on the compounds, 25% wettable powder was applied for the test) of the compound of the present invention was diluted with water containing a spreading agent to prepare a chemical solution with a concentration of 100 ppm. To the chemical solution was dipped leaves of Chinese olive for about 10 seconds, and after air-drying, they were placed in a laboratory dish, then, 10 diamondback moths (Plutella xylostella) with second instar larvae per the dish were released therein, and the dish was covered with a lid having holes and contained at a thermostat chamber at 25° C. A number of dead insect(s) after 6 days was counted and a rate of dead insects was calculated in the same manner as in Test Example 1. Incidentally, the test was carried out with two districts.

[2] = tested on: Common cutworms (Spodoptera litura); assay: Insecticidal test against common cutworm (leaf dip); settings: foliar, 144 h, read-out: insecticidal rate (rate of dead insects)
Experimental: as §1, with “10 Common cutworms (Spodoptera litura)” for “10 diamondback moths (Plutella xylostella)”, “calculated by” for “calculated in”, “the following calculation formula.” for “the same manner as in Test Example 1.”, “districts. Rate of dead insects (%)=(Number of dead insects/Number of released insects)×100” for “districts.”

[3] = tested on: Common cutworm (Spodoptera litura); assay: Insecticidal test (comparative test) against common cutworm, third instar larvae; settings: leaf dip, counted after 6 days
Experimental: 10% emulsifiable concentrates of the compound of the present invention and comparative compound were diluted with water containing a spreading agent to prepare chemical solutions with a predetermined concentration. To the chemical solutions was dipped leaves of Chinese olive for about 10 seconds, and after air-drying, they were placed in a laboratory dish, then, 7 Common cutworm (Spodoptera litura) with third instar larvae per the dish were released therein, and the dish was covered with a lid having holes and contained at a thermostat chamber at 25° C. Artificial feed (1 cm^3) was added after 2 days, a number of dead insect(s) was counted after 6 days and a rate of dead insects was calculated by the following calculation formula. Incidentally, the test was carried out with two districts. Rate of dead insects (%)=(Number of dead insects/Number of released insects)×100

[4] = 100 ppm, leaf dip, second instar larvae, after 6 days, 25° C.

Cc1cc(C(O)(C(F)(F)F)C(F)(F)Oc2ccc(Cl)cc2)ccc1NC(=O)c1cccc(I)c1C(=O)NC(C)C (stereo not shown) [Compound No. 2-008, N^1-[4-[2-(4-chlorophenoxy)-2,2-difluoro-1-hydroxy-1-trifluoromethylethyl]-2-methylphenyl]-3-iodo-N^2-isopropylphthalic diamide]
pest or weed control at 100 ppm [1, 4]: 100%
pest or weed control at 100 ppm [2, 4]: ≥ 80%

CSCC(C)NC(=O)c1c(I)cccc1C(=O)Nc1ccc(C(O)(c2ccc(Cl)cc2)C(F)(F)F)cc1C (stereo not shown) [1-036]
Rate of dead insects ([3]; concentration 0.1 ppm): 14.3%
Rate of dead insects ([3]; concentration 0.3 ppm): 28.6%
Rate of dead insects ([3]; concentration 1 ppm): 85.7%
Rate of dead insects ([3]; concentration 3 ppm): 100%
Rate of dead insects ([3]; concentration 10 ppm): 100%
Rate of dead insects ([3]; concentration 33 ppm): 100%

CSCC(C)(C)NC(=O)c1c(I)cccc1C(=O)Nc1ccc(C(O)c2ccc(Cl)cc2)cc1C (stereo not shown) [Comparative compound A, reference compound]
Rate of dead insects ([3]; concentration 33 ppm): 0%

Cc1cc(C(O)(c2ccc3c(c2)OC(F)(F)C(F)(F)O3)C(F)(F)F)ccc1NC(=O)c1cccc(I)c1C(=O)NC(C)C (stereo not shown) [1-028, N^1-[4-[2,2,2-trifluoro-1-hydroxy-1-(2,2,3,3-tetrafluoro-1,4-dioxa-2,3-dihydronaphthalen-6-yl)ethyl]-2-methylphenyl]-3-iodo-N^2-isopropylphthalic diamide]
pest or weed control at 100 ppm [1]: 100%
pest or weed control at 100 ppm [2]: ≥ 80%

CSCC(C)(C)NC(=O)c1c(I)cccc1C(=O)Nc1ccc(C(O)(c2ccc(Cl)cc2)C(F)(F)F)cc1C (stereo not shown) [1-084]
Rate of dead insects ([3]; concentration 0.3 ppm): 0%
Rate of dead insects ([3]; concentration 1 ppm): 21.3%
Rate of dead insects ([3]; concentration 3 ppm): 71.4%
Rate of dead insects ([3]; concentration 10 ppm): 100%
Rate of dead insects ([3]; concentration 33 ppm): 100%

Cc1cc(C(O)(COc2ccc(Cl)cc2)C(F)(F)F)ccc1NC(=O)c1cccc(I)c1C(=O)NC(C)C (stereo not shown) [Compound No. 2-004, N^1-[4-[2-(4-chlorophenoxy)-1-hydroxy-1-trifluoromethylethyl]-2-methylphenyl]-3-iodo-N^2-isopropylphthalic diamide]
pest or weed control at 100 ppm [1, 4]: 100%
pest or weed control at 100 ppm [2, 4]: ≥ 80%

COC(c1ccc(Cl)cc1)(c1ccc(NC(=O)c2cccc(I)c2C(=O)NC(C)C)c(C)c1)C(F)(F)F (stereo not shown) [Compound No. 3-002, N^1-[4-[1-(4-chlorophenyl)-2,2,2-trifluoro-1-methoxyethyl]-2-methylphenyl]-3-iodo-N^2-isopropylphthalic diamide]
pest or weed control at 100 ppm [1]: 100%
pest or weed control at 100 ppm [2]: ≥ 80%

Cc1cc2c(cc1NC(=O)c1cccc(I)c1C(=O)NC(C)C)OC(F)(F)C2(O)C(F)(F)F (stereo not shown) [Compound No. 4-002, N^1-(2,2-difluoro-3-hydroxy-5-methyl-3-trifluoromethyl-2,3-dihydrobenzofuran-6-yl)-3-iodo-N^2-isopropylphthalic diamide]
pest or weed control at 100 ppm [1, 4]: 100%
pest or weed control at 100 ppm [2, 4]: ≥ 80%

Cc1cc(C(O)(C=Cc2ccc(Cl)cc2)C(F)(F)F)ccc1NC(=O)c1cccc(I)c1C(=O)NC(C)C (stereo not shown) [Compound No. 2-018, N^1-[4-[3-(4-chlorophenyl)-1-hydroxy-1-trifluoromethyl-2-propenyl]-2-methylphenyl]-3-iodo-N^2-isopropylphthalic diamide]
pest or weed control at 100 ppm [1, 4]: 100%
pest or weed control at 100 ppm [2, 4]: ≥ 80%

Cc1cc(C(O)(c2ccc(Cl)cc2)C(F)(F)F)ccc1NC(=O)c1cccc(I)c1C(=O)NC(C)(C)CS(C)(=O)=O (stereo not shown) [1-087]
Rate of dead insects ([3]; concentration 0.1 ppm): 0%
Rate of dead insects ([3]; concentration 0.3 ppm): 21.3%
Rate of dead insects ([3]; concentration 1 ppm): 71.4%
Rate of dead insects ([3]; concentration 3 ppm): 100%
Rate of dead insects ([3]; concentration 10 ppm): 100%
Rate of dead insects ([3]; concentration 33 ppm): 100%

Cc1cc(C(O)(c2ccc(OS(C)(=O)=O)cc2)C(F)(F)F)ccc1NC(=O)c1cccc(I)c1C(=O)NC(C)C (stereo not shown) [Compound No. 1-015, N^1-[4-[2,2,2-trifluoro-1-hydroxy-1-(4-methanesulfonyloxyphenyl)ethyl]-2-methylphenyl]-3-iodo-N^2-isopropylphthalic diamide]
pest or weed control at 100 ppm [1]: 100%
pest or weed control at 100 ppm [2]: ≥ 80%

Cc1cc(C(O)(c2ccc(OC(F)(F)F)cc2)C(F)(F)F)ccc1NC(=O)c1cccc(I)c1C(=O)NC(C)C (stereo not shown) [Compound No. 1-009, N^1-[4-[2,2,2-trifluoro-1-hydroxy-1-(4-trifluoromethoxyphenyl)ethyl]-2-methylphenyl]-3-iodo-N^2-isopropylphthalic diamide]
pest or weed control at 100 ppm [1]: 100%
pest or weed control at 100 ppm [2]: ≥ 80%
